According to patent US4499088A, “Cephem compounds” (Fujisawa Pharmaceutical Co., Ltd., priority 1983, dated 1985):

Columns and labels:
in vivo = settings: rat, po, 100 mg/kg
Description: Rats anesthetized with pentobarbital were fixed in supine position, and a polyethylene cannula was inserted into the bile duct. Bile samples were collected at 0 to 3, 3 to 6, and 6 to 24 hours after oral administration of 100 mg/kg of the test antibiotic. The antibiotic levels in the bile samples were bioassayed with the standard solutions prepared with M/15 phosphate buffer (pH 7.0) and the biliary recovery in 24 hours were calculated.

Urinary excretion = assay type: in vivo; settings: rat; rats, oral administration of 100 mg/kg, urine 0 to 6 and 6 to 24 hours, bioassay; read-out: Urinary recovery in 24 hours (%)
Description: Urine of rats was collected with a urine collector at 0 to 6, and 6 to 24 hours after oral administration of 100 mg/kg of the test antibiotic. The antibiotic levels in the urine samples were bioassayed with the standard solution prepared with M/15 phosphate buffer (pH 7.0) and the urinary recovery in 24 hours was calculated.

Proteus mirabilis 18 = assay: Minimal inhibitory concentration, two-fold agar-plate dilution method; assay type: cell-based; settings: HI-agar, 37° C., 20 hours
Description: (§1) (A) Minimal inhibitory concentration (1) Test Method In vitro antibacterial activity was determined by the two-fold agar-plate dilution method as described below. One loopful of an overnight culture of each test strain in Trypticase-soy broth (10^8 viable cells per ml) was streaked on heart infusion agar (HI-agar) containing graded concentrations of representative test compound, and the minimal inhibitory concentration (MIC) was expressed in terms of μg/ml after incubation at 37° C. for 20 hours.

Proteus vulgaris 2 = assay: as above; assay type: cell-based; settings: HI-agar, 37° C., 20 hours
Description: as §1

dose excreted at 24 h (in vivo): 8.97%
dose excreted at 24 h (Urinary excretion): 20.2%
MIC (Proteus mirabilis 18): < 0.025 µg/mL
MIC (Proteus vulgaris 2): < 0.025 µg/mL
SMILES: O=C(O)CO/N=C(\C(=O)NC1C(=O)N2C(C(=O)O)=C(CSc3ccc4nnnn4n3)CSC12)c1cscn1 (stereo not drawn) [Test Compound (1), 7-[2-Carboxymethoxyimino-2-(4-thiazolyl)acetamido]-3-(tetrazolo[1,5-b]pyridazin-6-yl)thiomethyl-3-cephem-4-carboxylic acid (syn isomer)]
